The source of these data is patent US8546381B2, “Bridged heterocyclic compounds and methods of use” (Medivation Technologies, Inc., priority 2008, dated 2013).

The structures appear in SMILES notation.

Assay [1] has as its target T1, human recombinant serotonin (5-Hydroxytryptamine) 5-HT2A receptor (Homo sapiens, UniProt P28223).
T1 construct: expressed in transfected cells; host or cells: CHO-K1 cells
Briefly: Serotonin 5-HT2A radioligand binding ([3H]Ketanserin). As to conditions: read-out: Serotonin 5-HT2A, inhibition of ligand binding (1 μM). How it is done: To evaluate in radioligand binding assays the activity of compounds of the invention, human recombinant serotonin (5-Hydroxytryptamine) 5-HT2A receptor expressed in Chinese hamster ovary (CHO-K1) cells (Bonhaus, D. W. et al. Br. J. Pharmacol. 115:622, 1995; Saucier, C. and Albert, P. R., J. Neurochem. 68:1998, 1997) in a 50 mM Tris-HCl buffer, pH 7.4, was used. Compounds of the invention were incubated with 0.5 nM [^3H]Ketanserin for 60 minutes at 25° C. Non-specific binding was estimated in the presence of 1 μM Mianserin. Receptor proteins were filtered and washed, the filters were then counted to determine [^3H]Ketanserin specifically bound. Compounds were screened at 1 μM or lower, using 1% DMSO as vehicle. Biochemical assay results are presented as the percent inhibition of specific binding in Table 4.

The target in assay [2] is T2, human recombinant adrenergic α1D receptor (Homo sapiens, UniProt P25100).
T2 construct: expressed in transfected cells; host or cells: HEK-293 cells
T2 sequence (P25100 1-572): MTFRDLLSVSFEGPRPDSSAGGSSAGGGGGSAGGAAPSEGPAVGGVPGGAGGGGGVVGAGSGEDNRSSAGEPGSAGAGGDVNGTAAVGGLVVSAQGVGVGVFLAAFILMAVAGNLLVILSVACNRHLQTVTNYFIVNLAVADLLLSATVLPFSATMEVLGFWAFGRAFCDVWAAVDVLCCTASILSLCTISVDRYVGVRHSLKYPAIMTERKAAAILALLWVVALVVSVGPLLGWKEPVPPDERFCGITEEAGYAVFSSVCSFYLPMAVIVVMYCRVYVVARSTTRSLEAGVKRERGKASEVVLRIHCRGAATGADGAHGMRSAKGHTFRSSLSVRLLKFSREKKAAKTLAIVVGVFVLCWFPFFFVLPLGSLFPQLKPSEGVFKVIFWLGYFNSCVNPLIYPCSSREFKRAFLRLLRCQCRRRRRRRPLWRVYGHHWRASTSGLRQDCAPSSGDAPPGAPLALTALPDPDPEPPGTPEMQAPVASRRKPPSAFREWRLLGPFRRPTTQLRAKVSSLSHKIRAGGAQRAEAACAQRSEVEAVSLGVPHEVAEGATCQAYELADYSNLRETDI
Put plainly: Adrenergic α1D radioligand binding ([3H]Prozosin). As to conditions: 1 μM; read-out: Adrenergic α1D, inhibition of ligand binding (1 μM). How it is done: To evaluate in radioligand binding assays the activity of compounds of the invention, human recombinant adrenergic α1D receptor expressed in human embryonic kidney (HEK-293) cells (Kenny, B. A. et al. Br. J. Pharmacol. 115(6):981, 1995) in a 50 mM Tris-HCl buffer, pH 7.4, was used. Compounds of invention were incubated with 0.6 nM [^3H]Prozosin for 60 minutes at 25° C. Non-specific binding was estimated in the presence of 10 μM phentolamine. Receptor proteins were filtered and washed, the filters were then counted to determine [^3H]Prozosin specifically bound. Compounds were screened at 1 μM or lower, using 1% DMSO as vehicle. Biochemical assay results are presented as the percent inhibition of specific binding in Table 3.

The target in assay [3] is T3, human recombinant histamine H1 receptor (Homo sapiens, UniProt P35367).
T3 construct: expressed in transfected cells; host or cells: CHO cells
T3 sequence (P35367 whole entry): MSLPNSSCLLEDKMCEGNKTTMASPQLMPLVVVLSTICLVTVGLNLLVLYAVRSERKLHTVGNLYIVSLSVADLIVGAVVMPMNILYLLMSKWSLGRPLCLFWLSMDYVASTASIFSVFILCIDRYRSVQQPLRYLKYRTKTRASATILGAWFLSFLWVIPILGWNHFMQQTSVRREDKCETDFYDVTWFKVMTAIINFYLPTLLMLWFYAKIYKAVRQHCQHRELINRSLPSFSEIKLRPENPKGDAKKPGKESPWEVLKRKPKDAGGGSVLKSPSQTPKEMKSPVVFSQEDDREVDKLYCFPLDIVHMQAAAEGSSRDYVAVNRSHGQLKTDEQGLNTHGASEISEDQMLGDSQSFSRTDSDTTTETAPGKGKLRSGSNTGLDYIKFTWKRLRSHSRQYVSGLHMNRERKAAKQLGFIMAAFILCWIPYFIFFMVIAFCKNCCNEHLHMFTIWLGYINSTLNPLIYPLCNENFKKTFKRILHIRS
Briefly: Histamine H1 radioligand binding ([3H]Pyrilamine). The note with it: compound at 1 μM; inhibition of specific [3H]Pyrilamine binding; read-out: Histamine Binding (1 μM) H1, Percentage Inhibition. Here is the method: To evaluate in radioligand binding assays the activity of compounds of the invention, human recombinant histamine H1 receptor expressed in Chinese hamster ovary (CHO) cells (De Backer, M. D. et al., Biochem. Biophys. Res. Comm. 197(3):1601, 1993) in a modified Tris-HCl buffer (50 mM Tris-HCl, pH 7.4, 2 mM MgCl2, 100 mM NaCl, 250 mM Sucrose) was used. Compounds of the invention were incubated with 1.2 nM [^3H]Pyrilamine for 180 minutes at 25° C. Non-specific binding was estimated in the presence of 1 μM pyrilamine. Receptor proteins were filtered and washed, the filters were then counted to determine [^3H]Pyrilamine specifically bound. Compounds were screened at 1 μM or lower, using 1% DMSO as vehicle. Biochemical assay results are presented as the percent inhibition of specific binding in Table 2.

In assay [4] the target is T4, human recombinant adrenergic α2B receptor (Homo sapiens, UniProt P18089).
T4 construct: expressed in transfected cells; host or cells: CHO-K1 cells
T4 sequence (P18089 1-450): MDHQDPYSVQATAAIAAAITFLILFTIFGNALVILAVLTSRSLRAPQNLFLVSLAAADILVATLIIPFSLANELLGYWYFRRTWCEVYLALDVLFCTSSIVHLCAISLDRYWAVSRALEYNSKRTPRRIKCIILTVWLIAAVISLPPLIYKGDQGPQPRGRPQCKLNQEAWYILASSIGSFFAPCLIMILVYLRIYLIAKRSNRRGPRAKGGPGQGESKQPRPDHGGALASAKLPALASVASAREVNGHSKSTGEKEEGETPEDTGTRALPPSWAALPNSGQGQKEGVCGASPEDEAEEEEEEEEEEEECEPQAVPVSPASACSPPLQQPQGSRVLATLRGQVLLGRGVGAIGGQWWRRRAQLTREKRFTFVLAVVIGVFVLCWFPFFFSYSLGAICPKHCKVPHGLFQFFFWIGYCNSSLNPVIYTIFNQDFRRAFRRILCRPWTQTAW
Briefly: Adrenergic α2B radioligand binding ([3H]Rauwolscine). As to conditions: 1 μM; read-out: Adrenergic α2B, inhibition of ligand binding (1 μM). Here is the method: To evaluate in radioligand binding assays the activity of compounds of the invention, human recombinant adrenergic α2B receptor expressed in Chinese hamster ovary (CHO-K1) cells (Uhlen S et al. Eur J. Pharmacol. 343(1):93, 1998) in a modified Tris-HCl buffer (50 mM Tris-HCl, pH 7.4, 12.5 mM MgCl2, 1 mM EDTA, 0.2% BSA) was used. Compounds of the invention were incubated with 2.5 nM [^3H]Rauwolscine for 60 minutes at 25° C. Non-specific binding was estimated in the presence of 10 μM Prozosin. Receptor proteins were filtered and washed, the filters were then counted to determine [^3H]Rauwolscine specifically bound. Compounds were screened at 1 μM or lower, using 1% DMSO as vehicle. Biochemical assay results are presented as the percent inhibition of specific binding in Table 3.

T1 sequence (P28223 whole entry): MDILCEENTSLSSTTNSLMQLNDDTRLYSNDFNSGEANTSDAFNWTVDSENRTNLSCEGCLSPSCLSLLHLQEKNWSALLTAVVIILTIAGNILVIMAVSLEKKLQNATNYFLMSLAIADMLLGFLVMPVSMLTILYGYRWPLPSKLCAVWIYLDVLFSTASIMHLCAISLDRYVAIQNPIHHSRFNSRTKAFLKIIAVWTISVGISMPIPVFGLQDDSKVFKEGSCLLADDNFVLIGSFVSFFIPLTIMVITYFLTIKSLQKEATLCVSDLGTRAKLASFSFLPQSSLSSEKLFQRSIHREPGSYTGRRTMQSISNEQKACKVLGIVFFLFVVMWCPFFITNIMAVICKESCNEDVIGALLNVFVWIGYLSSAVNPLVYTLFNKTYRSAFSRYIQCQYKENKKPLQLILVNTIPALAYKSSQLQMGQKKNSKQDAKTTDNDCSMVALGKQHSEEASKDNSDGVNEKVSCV

For `CN1C2CCC1c1c(n(CCC#N)c3ccc(Cl)cc13)C2` (centres unmarked) [Compound 107], the inhibition at 1 µM stood at 5% in assay [1], 47% in assay [2], 72% in assay [3] and 57% in assay [4].

In the case of `CN1[C@@H]2CC[C@H]1c1c(n(CCc3ccc(C(F)(F)F)nc3)c3ccccc13)C2` [Compound 97], the inhibition at 1 µM in assay [1] was found to be 25%; in assay [2], 19%; in assay [3], 26%; in assay [4], 103%.

On to `C/C(=C\n1c2c(c3cc(C)ccc31)C1CCC(C2)N1C)c1ccc(Cl)cc1` (centres unmarked) [Compound 116], for which the inhibition at 1 µM stood at 90% in assay [1], 40% in assay [2], 23% in assay [3] and 95% in assay [4].

As to `Cc1ccc2c(c1)c1c(n2CC(C)(O)c2ccc(Cl)cc2)CC2CCC1N2C` (centres unmarked) [Compound 54], the inhibition at 1 µM came out at 100% in assay [1], 25% in assay [2], 63% in assay [3] and 94% in assay [4].

For `CN1C2CCC1c1c(n(CC(=O)c3ccc(Cl)cc3)c3ccc(Cl)cc13)C2` (centres unmarked) [Compound 111], the inhibition at 1 µM turned out to be 94% in assay [1], 40% in assay [2], 66% in assay [3] and 96% in assay [4].

For `COc1ccc(C(C)(O)Cn2c3c(c4cc(Cl)ccc42)C2CCC(C3)N2C)cc1F` (centres unmarked) [Compound 160], the inhibition at 1 µM in assay [1] was found to be 95%; in assay [2] it was 0%; in assay [3], 86%; in assay [4], 80%.

Regarding `CN1C2CCC1c1c(n(CCC(=O)N3CCCC3)c3ccc(Cl)cc13)C2` (centres unmarked) [Compound 5], the inhibition at 1 µM turned out to be 21% in assay [2], 32% in assay [3] and 30% in assay [4].

Consider `C/C(=C/n1c2c(c3ccccc31)[C@@H]1CC[C@H](C2)N1C)c1ccc(F)cc1` [Compound 121], for which the inhibition at 1 µM in assay [1] amounted to 98%; in assay [2], 80%; in assay [3] it was 17%; in assay [4], 100%.

Consider `CN1C2CCC1c1c(n(CCCc3ccc(Cl)cc3)c3ccc(Cl)cc13)C2` (centres unmarked) [Compound 39], for which the inhibition at 1 µM is 87% in assay [1], 11% in assay [2], 91% in assay [3] and 54% in assay [4].

For `Cc1ncc(CCn2c3c(c4cc(Cl)ccc42)C2CCC(C3)N2C)cn1` (centres unmarked) [Compound 82], the inhibition at 1 µM is -16% in assay [1], 40% in assay [2], 44% in assay [3] and 47% in assay [4].

Consider `CN1C2CCC1c1c(n(CCC(=O)N3CCNCC3)c3ccc(Cl)cc13)C2` (centres unmarked) [Compound 9], for which the inhibition at 1 µM was 15% in assay [1], 9% in assay [2], 6% in assay [3] and -15% in assay [4].

Turning to `Cc1ccc(CCCn2c3c(c4cc(Cl)ccc42)C2CCC(C3)N2C)cn1` (centres unmarked) [Compound 38], the inhibition at 1 µM in assay [1] came to 13%; in assay [2] it was 50%; in assay [3], 96%; in assay [4] it was 76%.

With `Cc1ccc2c(c1)c1c(n2CCc2nc(-c3ccccc3)cs2)CC2CCC1N2C` (centres unmarked) [Compound 114], the inhibition at 1 µM in assay [1] is 88%; in assay [2], 68%; in assay [3], 93%; in assay [4], 107%.

With `CN1[C@@H]2CC[C@H]1c1c(n(CC(=O)N3CCCCC3)c3ccccc13)C2` [Compound 101], the inhibition at 1 µM came out at 93% in assay [1], 74% in assay [2], 48% in assay [3] and 76% in assay [4].

`CN1[C@@H]2CC[C@H]1c1c(n(CCc3ccc(F)cc3)c3ccc(F)cc13)C2` [Compound 94, (+)-(7S,10R)-2-Fluoro-5-(4-fluorophenethyl)-11-methyl-5,6,7,8,9,10-hexahydro-7,10-iminocyclohept[b]indole]: the inhibition at 1 µM was found to be 81% in assay [1], 77% in assay [2], 92% in assay [3] and 102% in assay [4].

Consider `CN1C2CCC1c1c(n(CCC(=O)N3CCOCC3)c3ccc(Cl)cc13)C2` (centres unmarked) [Compound 13], for which the inhibition at 1 µM in assay [2] worked out at 8%; in assay [3], 28%; in assay [4], 7%.

In the case of `CN1C2CCC1c1c(n(CC(=O)N3CCOCC3)c3ccc(Cl)cc13)C2` (centres unmarked) [Compound 59, 2-(2-chloro-11-methyl-5,6,7,8,9,10-Hexahydro-7,10-iminocyclohept[b]indol-5-yl)-1-morpholinoethanone], the inhibition at 1 µM in assay [2] turned out to be 2%; in assay [3] it was 7%; in assay [4] it was 20%.

With `CN1C2CCC1c1c(n(CCc3ccc(Cl)cc3)c3ccc(F)cc13)C2` (centres unmarked) [Compound 33], the inhibition at 1 µM is 36% in assay [2], 86% in assay [3] and 100% in assay [4].

For the compound `CN1C2CCC1c1c(n(CC(=O)N3CCCC3)c3ccc(Cl)cc13)C2` (centres unmarked) [Compound 60], the inhibition at 1 µM in assay [2] stood at 1%; in assay [3] it was 21%; in assay [4] it was 5%.

With `Cc1ccc2c(c1)c1c(n2CCc2ccc(F)cc2)CC2CCC1N2C` (centres unmarked) [Compound 62], the inhibition at 1 µM in assay [2] turned out to be 83%; in assay [3] it was 98%; in assay [4], 104%.

Regarding `Cc1ccc(CCn2c3c(c4cc(Cl)ccc42)C2CCC(C3)N2C)cc1` (centres unmarked) [Compound 61], the inhibition at 1 µM in assay [2] is 80%; in assay [3], 98%; in assay [4], 96%.

For the compound `CN1C2CCC1c1c(n(CCc3ccc(F)cc3)c3ccc(F)cc13)C2` (centres unmarked) [Compound 35], the figures for the inhibition at 1 µM in assay [2], in assay [3] and in assay [4] were 78%, 93% and 110%, respectively.
